Source: the NIST ThermoML archive (doi:10.1016/j.tca.2010.12.008)
Numbers after ± are expanded uncertainties.

Assay: molar heat capacity at constant pressure
Details: 101.33 kPa

CC(C)(C)P(=O)(O)C(C)(C)C [di-tert-butylphosphinic acid]
Details	molar heat capacity at constant pressure [J/K/mol]
2.277 K, Crystal 2	0.028 ± 0.002
2.67 K, Crystal 2	0.056 ± 0.005
3.092 K, Crystal 2	0.169 ± 0.01
3.71 K, Crystal 2	0.338 ± 0.018
4.497 K, Crystal 2	0.591 ± 0.03
5.284 K, Crystal 2	0.929 ± 0.048
5.987 K, Crystal 2	1.352 ± 0.069
6.633 K, Crystal 2	1.83 ± 0.09
7.223 K, Crystal 2	2.337 ± 0.12
7.813 K, Crystal 2	2.872 ± 0.14
8.404 K, Crystal 2	3.548 ± 0.18
9.078 K, Crystal 2	4.337 ± 0.22
9.808 K, Crystal 2	5.322 ± 0.27
10.74 K, Crystal 2	6.589 ± 0.33
11.66 K, Crystal 2	7.941 ± 0.4
12.56 K, Crystal 2	9.405 ± 0.47
13.52 K, Crystal 2	10.93 ± 0.55
14.44 K, Crystal 2	12.42 ± 0.62
15.34 K, Crystal 2	13.94 ± 0.7
16.24 K, Crystal 2	15.46 ± 0.77
17.17 K, Crystal 2	17.04 ± 0.85
18.15 K, Crystal 2	18.7 ± 0.94
19.22 K, Crystal 2	20.47 ± 1
20.32 K, Crystal 2	22.27 ± 1.1
21.3 K, Crystal 2	23.93 ± 1.2
22.28 K, Crystal 2	25.54 ± 1.3
23.29 K, Crystal 2	27.17 ± 1.4
24.3 K, Crystal 2	28.84 ± 1.4
25.37 K, Crystal 2	30.69 ± 1.5
26.44 K, Crystal 2	32.05 ± 1.6
27.48 K, Crystal 2	33.54 ± 1.7
28.6 K, Crystal 2	35.23 ± 1.8
29.67 K, Crystal 2	36.78 ± 1.8
30.74 K, Crystal 2	38.47 ± 1.9
31.78 K, Crystal 2	40.07 ± 2
32.82 K, Crystal 2	41.87 ± 2.1
34.73 K, Crystal 2	45.11 ± 2.3
35.2 K, Crystal 2	46.01 ± 2.3
35.88 K, Crystal 2	47.28 ± 2.4
36.58 K, Crystal 2	48.41 ± 2.4
37.37 K, Crystal 1	47.62 ± 2.4
38.02 K, Crystal 1	45.28 ± 2.3
38.77 K, Crystal 1	45.25 ± 2.3
39.59 K, Crystal 1	45.81 ± 2.3
40.38 K, Crystal 1	46.52 ± 2.3
41.16 K, Crystal 1	47.25 ± 2.4
41.95 K, Crystal 1	48.01 ± 2.4
42.74 K, Crystal 1	48.77 ± 2.4
43.55 K, Crystal 1	49.65 ± 2.5
44.37 K, Crystal 1	50.52 ± 2.5
45.18 K, Crystal 1	51.33 ± 2.6
46 K, Crystal 1	52.18 ± 2.6
46.84 K, Crystal 1	53.05 ± 2.7
47.66 K, Crystal 1	53.9 ± 2.7
48.47 K, Crystal 1	54.74 ± 2.7
49.31 K, Crystal 1	55.53 ± 2.8
50.1 K, Crystal 1	56.32 ± 2.8
50.97 K, Crystal 1	57.08 ± 2.9
51.81 K, Crystal 1	57.9 ± 2.9
52.63 K, Crystal 1	58.8 ± 2.9
53.44 K, Crystal 1	59.56 ± 3
54.29 K, Crystal 1	60.43 ± 3
55.1 K, Crystal 1	61.3 ± 3.1
55.94 K, Crystal 1	62.17 ± 3.1
56.79 K, Crystal 1	63.08 ± 3.2
57.66 K, Crystal 1	63.98 ± 3.2
58.67 K, Crystal 1	65.08 ± 3.3
59.34 K, Crystal 1	65.81 ± 3.3
60.19 K, Crystal 1	66.74 ± 3.3
61 K, Crystal 1	67.64 ± 3.4
61.65 K, Crystal 1	68.31 ± 3.4
62.63 K, Crystal 1	69.41 ± 3.5
63.11 K, Crystal 1	69.95 ± 3.5
63.56 K, Crystal 1	70.45 ± 3.5
64.57 K, Crystal 1	71.58 ± 3.6
65.27 K, Crystal 1	72.4 ± 3.6
66 K, Crystal 1	73.16 ± 3.7
66.9 K, Crystal 1	74.2 ± 3.7
67.41 K, Crystal 1	74.76 ± 3.7
67.94 K, Crystal 1	75.35 ± 3.8
68.9 K, Crystal 1	76.37 ± 3.8
69.57 K, Crystal 1	77.21 ± 3.9
70.28 K, Crystal 1	77.94 ± 3.9
70.64 K, Crystal 1	78.42 ± 3.9
71.23 K, Crystal 1	79.24 ± 4
71.62 K, Crystal 1	79.66 ± 4
81.51 K, Crystal 1	92.05 ± 4.6
82.47 K, Crystal 1	93.11 ± 4.7
83.42 K, Crystal 1	94.18 ± 4.7
84.38 K, Crystal 1	95.24 ± 4.8
85.33 K, Crystal 1	96.41 ± 4.8
86.29 K, Crystal 1	97.48 ± 4.9
87.35 K, Crystal 1	98.65 ± 4.9
88.31 K, Crystal 1	99.82 ± 5
89.26 K, Crystal 1	100.89 ± 5
90.32 K, Crystal 1	102.06 ± 5.1
91.28 K, Crystal 1	103.23 ± 5.2
92.34 K, Crystal 1	104.4 ± 5.2
93.3 K, Crystal 1	105.58 ± 5.3
94.36 K, Crystal 1	106.75 ± 5.3
95.31 K, Crystal 1	107.81 ± 5.4
96.27 K, Crystal 1	109.09 ± 5.5
97.33 K, Crystal 1	110.16 ± 5.5
98.39 K, Crystal 1	111.33 ± 5.6
99.34 K, Crystal 1	112.39 ± 5.6
100.41 K, Crystal 1	113.56 ± 5.7
101.47 K, Crystal 1	114.74 ± 5.7
102.53 K, Crystal 1	115.8 ± 5.8
103.59 K, Crystal 1	116.97 ± 5.8
104.55 K, Crystal 1	118.04 ± 5.9
105.71 K, Crystal 1	119.32 ± 6
106.78 K, Crystal 1	120.49 ± 6
107.84 K, Crystal 1	121.56 ± 6.1
108.9 K, Crystal 1	122.73 ± 6.1
109.96 K, Crystal 1	123.9 ± 6.2
111.02 K, Crystal 1	124.96 ± 6.2
112.08 K, Crystal 1	126.24 ± 6.3
113.14 K, Crystal 1	127.31 ± 6.4
114.2 K, Crystal 1	128.48 ± 6.4
115.27 K, Crystal 1	129.54 ± 6.5
116.43 K, Crystal 1	130.61 ± 6.5
117.5 K, Crystal 1	131.89 ± 6.6
118.56 K, Crystal 1	133.17 ± 6.7
119.72 K, Crystal 1	134.34 ± 6.7
120.79 K, Crystal 1	135.3 ± 6.8
121.95 K, Crystal 1	136.47 ± 6.8
123.12 K, Crystal 1	137.64 ± 6.9
124.18 K, Crystal 1	138.92 ± 7
125.35 K, Crystal 1	139.99 ± 7
126.52 K, Crystal 1	141.05 ± 7.1
127.69 K, Crystal 1	142.22 ± 7.1
128.85 K, Crystal 1	143.4 ± 7.2
130.02 K, Crystal 1	144.57 ± 7.2
131.19 K, Crystal 1	145.74 ± 7.3
132.46 K, Crystal 1	147.02 ± 7.4
133.53 K, Crystal 1	148.19 ± 7.4
134.69 K, Crystal 1	149.04 ± 7.5
135.75 K, Crystal 1	150.32 ± 7.5
137.24 K, Crystal 1	151.28 ± 7.6
138.41 K, Crystal 1	152.45 ± 7.6
139.58 K, Crystal 1	153.52 ± 7.7
141.06 K, Crystal 1	154.79 ± 7.7
142.44 K, Crystal 1	156.07 ± 7.8
143.93 K, Crystal 1	157.56 ± 7.9
145.2 K, Crystal 1	158.74 ± 7.9
146.69 K, Crystal 1	160.12 ± 8
148.18 K, Crystal 1	161.4 ± 8.1
149.88 K, Crystal 1	163 ± 8.2
151.25 K, Crystal 1	164.38 ± 8.2
152.74 K, Crystal 1	165.77 ± 8.3
154.33 K, Crystal 1	167.04 ± 8.4
155.61 K, Crystal 1	168.32 ± 8.4
157.31 K, Crystal 1	169.71 ± 8.5
158.79 K, Crystal 1	170.99 ± 8.5
160.17 K, Crystal 1	172.37 ± 8.6
162.09 K, Crystal 1	173.76 ± 8.7
163.68 K, Crystal 1	175.25 ± 8.8
164.95 K, Crystal 1	176.42 ± 8.8
166.76 K, Crystal 1	177.81 ± 8.9
168.24 K, Crystal 1	179.3 ± 9
169.94 K, Crystal 1	180.79 ± 9
171.64 K, Crystal 1	182.28 ± 9.1
173.34 K, Crystal 1	183.77 ± 9.2
174.83 K, Crystal 1	185.05 ± 9.2
176.74 K, Crystal 1	186.86 ± 9.3
182.79 K, Crystal 1	191.66 ± 9.6
183.96 K, Crystal 1	192.72 ± 9.6
185.13 K, Crystal 1	193.79 ± 9.7
186.61 K, Crystal 1	195.06 ± 9.8
188.1 K, Crystal 1	196.24 ± 9.8
189.16 K, Crystal 1	197.3 ± 9.9
190.75 K, Crystal 1	198.37 ± 9.9
192.13 K, Crystal 1	199.65 ± 10
193.62 K, Crystal 1	200.92 ± 10
195.11 K, Crystal 1	202.2 ± 10
196.49 K, Crystal 1	203.37 ± 10
198.08 K, Crystal 1	204.65 ± 10
199.57 K, Crystal 1	205.72 ± 10
201.16 K, Crystal 1	207.1 ± 10
202.65 K, Crystal 1	208.27 ± 10
204.13 K, Crystal 1	209.55 ± 10
205.72 K, Crystal 1	210.72 ± 11
207.32 K, Crystal 1	212 ± 11
209.02 K, Crystal 1	213.18 ± 11
210.5 K, Crystal 1	214.45 ± 11
212.31 K, Crystal 1	215.73 ± 11
213.8 K, Crystal 1	217.01 ± 11
215.5 K, Crystal 1	218.5 ± 11
217.3 K, Crystal 1	219.78 ± 11
218.89 K, Crystal 1	221.16 ± 11
220.7 K, Crystal 1	222.76 ± 11
222.5 K, Crystal 1	224.04 ± 11
224.31 K, Crystal 1	225.53 ± 11
225.9 K, Crystal 1	227.24 ± 11
227.81 K, Crystal 1	228.62 ± 11
229.72 K, Crystal 1	230.11 ± 12
231.53 K, Crystal 1	231.82 ± 12
233.23 K, Crystal 1	233.2 ± 12
235.03 K, Crystal 1	234.69 ± 12
236.84 K, Crystal 1	236.08 ± 12
238.85 K, Crystal 1	237.57 ± 12
240.66 K, Crystal 1	239.06 ± 12
242.78 K, Crystal 1	240.77 ± 12
244.7 K, Crystal 1	242.15 ± 12
246.61 K, Crystal 1	243.75 ± 12
248.52 K, Crystal 1	245.35 ± 12
250.54 K, Crystal 1	247.05 ± 12
252.55 K, Crystal 1	248.76 ± 12
254.57 K, Crystal 1	250.25 ± 13
256.59 K, Crystal 1	251.85 ± 13
258.71 K, Crystal 1	253.44 ± 13
260.62 K, Crystal 1	255.26 ± 13
262.75 K, Crystal 1	257.07 ± 13
264.98 K, Crystal 1	258.77 ± 13
266.89 K, Crystal 1	260.69 ± 13
269.22 K, Crystal 1	262.39 ± 13
271.35 K, Crystal 1	264.63 ± 13
273.37 K, Crystal 1	265.91 ± 13
275.7 K, Crystal 1	267.4 ± 13
277.82 K, Crystal 1	269.32 ± 13
280.27 K, Crystal 1	271.45 ± 14
282.18 K, Crystal 1	272.62 ± 14
284.62 K, Crystal 1	274.96 ± 14
286.96 K, Crystal 1	276.99 ± 14
289.29 K, Crystal 1	279.01 ± 14
291.63 K, Crystal 1	281.14 ± 14
293.64 K, Crystal 1	283.17 ± 14
295.98 K, Crystal 1	283.49 ± 14
